Earlier results as cited in patent publication US4978531A, “Clebopride transdermal patch” (Fordonal, S.A., priority 1987, dated 1990).

Settings: in vivo

## COc1cc(N)c(Cl)cc1C(=O)NC1CCN(Cc2ccccc2)CC1 [clebopride]
  biological half-life: about 1.5 hours
